# Source: PMC10482267, “Safety, tolerability, pharmacokinetics, and pharmacodynamics of single and multiple doses of aficamten in healthy Chinese participants: a randomized, double-blind, placebo-controlled, phase 1 study” (Frontiers in Pharmacology, 2023)
# Columns and labels:
# [1] = test system: healthy Chinese participants; test: Safety assessments (treatment-emergent adverse events); assay type: in vivo, human; details: for safety and tolerability, in words: single dose of 10 mg or 20 mg and multiple doses of 5 mg, oral
# Method: Safety was evaluated based on the occurrence, frequency, and severity of adverse events (AEs). Routine clinical laboratory tests, 12‐lead ECGs, physical examinations, and vital signs (blood pressure, pulse rate, and body temperature) were performed at initial screening, day 1, during the treatment period until discharge or early termination. The AEs were monitored from the initial administration to the last follow-up after the last treatment. The AEs were assessed by the investigators with regard to severity (mild, moderate, severe, and life‐threatening) and the relationship to study treatment (reasonably or possibly related and not reasonably or not possibly related).
# [2] = test system: CYP2D6; design: method as in not given; details: in vitro; forms metabolites CK-3834282 and CK-3834283; ref not given; cited from earlier work
smiles,measurement,setting,value
CCc1nc(-c2ccc3c(c2)CC[C@H]3NC(=O)c2cnn(C)c2)no1 [aficamten],"TEAE Alanine aminotransferase increased, Number (%) of Subjects",[1]; MD 5 mg (N = 9),0 Number (%)
same,"TEAE Blood bilirubin increased, Number (%) of Subjects",[1]; MD 5 mg (N = 9),0 Number (%)
same,"TEAE Blood creatine phosphokinase increased, Events",[1]; MD 5 mg (N = 9),1
same,"TEAE Blood creatine phosphokinase increased, Number (%) of Subjects",[1]; MD 5 mg (N = 9),1(11.1) Number (%)
same,"TEAE Blood creatinine increased, Events",[1]; MD 5 mg (N = 9),1
same,"TEAE Blood creatinine increased, Number (%) of Subjects",[1]; MD 5 mg (N = 9),1(11.1) Number (%)
same,"TEAE Blood sodium decreased, Events",[1]; MD 5 mg (N = 9),1
same,"TEAE Blood sodium decreased, Number (%) of Subjects",[1]; MD 5 mg (N = 9),1(11.1) Number (%)
same,"TEAE Cardiac disorders (SOC), Number (%) of Subjects",[1]; MD 5 mg (N = 9),0 Number (%)
same,"TEAE Chest discomfort, Number (%) of Subjects",[1]; MD 5 mg (N = 9),0 Number (%)
same,"TEAE Conjugated bilirubin increased, Events",[1]; MD 5 mg (N = 9),2
same,"TEAE Conjugated bilirubin increased, Number (%) of Subjects",[1]; MD 5 mg (N = 9),2(22.2) Number (%)
same,"TEAE Gamma-glutamyltransferase increased, Number (%) of Subjects",[1]; MD 5 mg (N = 9),0 Number (%)
same,"TEAE Gastrointestinal disorders (SOC), Number (%) of Subjects",[1]; MD 5 mg (N = 9),0 Number (%)
same,"TEAE General disorders and administration site conditions (SOC), Number (%) of Subjects",[1]; MD 5 mg (N = 9),0 Number (%)
same,"TEAE Heart rate decreased, Number (%) of Subjects",[1]; MD 5 mg (N = 9),0 Number (%)
same,"TEAE Investigations (SOC), Events",[1]; MD 5 mg (N = 9),13
same,"TEAE Investigations (SOC), Number (%) of Subjects",[1]; MD 5 mg (N = 9),6(66.7) Number (%)
same,"TEAE Nausea, Number (%) of Subjects",[1]; MD 5 mg (N = 9),0 Number (%)
same,"TEAE Neutrophil count decreased, Events",[1]; MD 5 mg (N = 9),2
same,"TEAE Neutrophil count decreased, Number (%) of Subjects",[1]; MD 5 mg (N = 9),1(11.1) Number (%)
same,"TEAE Neutrophil count increased (first line, r9), Events",[1]; MD 5 mg (N = 9),1
same,"TEAE Neutrophil count increased (first line, r9), Number (%) of Subjects",[1]; MD 5 mg (N = 9),1(11.1) Number (%)
same,"TEAE Neutrophil count increased (second line, r18), Events",[1]; MD 5 mg (N = 9),1
same,"TEAE Neutrophil count increased (second line, r18), Number (%) of Subjects",[1]; MD 5 mg (N = 9),1(11.1) Number (%)
same,"TEAE Rash, Events",[1]; MD 5 mg (N = 9),1
same,"TEAE Rash, Number (%) of Subjects",[1]; MD 5 mg (N = 9),1(11.1) Number (%)
same,"TEAE Skin and subcutaneous tissue disorders (SOC), Events",[1]; MD 5 mg (N = 9),1
same,"TEAE Skin and subcutaneous tissue disorders (SOC), Number (%) of Subjects",[1]; MD 5 mg (N = 9),1(11.1) Number (%)
same,"TEAE Systolic blood pressure decreased, Events",[1]; MD 5 mg (N = 9),3
same,"TEAE Systolic blood pressure decreased, Number (%) of Subjects",[1]; MD 5 mg (N = 9),2(22.2) Number (%)
same,"TEAE Ventricular hypokinesia, Number (%) of Subjects",[1]; MD 5 mg (N = 9),0 Number (%)
same,"TEAE White blood cell count decreased, Number (%) of Subjects",[1]; MD 5 mg (N = 9),0 Number (%)
same,"TEAE White blood cell count increased, Events",[1]; MD 5 mg (N = 9),1
same,"TEAE White blood cell count increased, Number (%) of Subjects",[1]; MD 5 mg (N = 9),1(11.1) Number (%)
same,"TEAEs, Events",[1]; MD 5 mg (N = 9),14
same,"TEAEs, Number (%) of Subjects",[1]; MD 5 mg (N = 9),6(66.7) Number (%)
same,"TEAE Alanine aminotransferase increased, Number (%) of Subjects",[1]; SAD 10 mg (N = 6),0 Number (%)
same,"TEAE Blood bilirubin increased, Number (%) of Subjects",[1]; SAD 10 mg (N = 6),0 Number (%)
same,"TEAE Blood creatine phosphokinase increased, Number (%) of Subjects",[1]; SAD 10 mg (N = 6),0 Number (%)
same,"TEAE Blood creatinine increased, Number (%) of Subjects",[1]; SAD 10 mg (N = 6),0 Number (%)
same,"TEAE Blood sodium decreased, Number (%) of Subjects",[1]; SAD 10 mg (N = 6),0 Number (%)
same,"TEAE Cardiac disorders (SOC), Events",[1]; SAD 10 mg (N = 6),1
same,"TEAE Cardiac disorders (SOC), Number (%) of Subjects",[1]; SAD 10 mg (N = 6),1(16.7) Number (%)
same,"TEAE Chest discomfort, Number (%) of Subjects",[1]; SAD 10 mg (N = 6),0 Number (%)
same,"TEAE Conjugated bilirubin increased, Number (%) of Subjects",[1]; SAD 10 mg (N = 6),0 Number (%)
same,"TEAE Gamma-glutamyltransferase increased, Number (%) of Subjects",[1]; SAD 10 mg (N = 6),0 Number (%)
same,"TEAE Gastrointestinal disorders (SOC), Number (%) of Subjects",[1]; SAD 10 mg (N = 6),0 Number (%)
same,"TEAE General disorders and administration site conditions (SOC), Number (%) of Subjects",[1]; SAD 10 mg (N = 6),0 Number (%)
same,"TEAE Heart rate decreased, Number (%) of Subjects",[1]; SAD 10 mg (N = 6),0 Number (%)
same,"TEAE Investigations (SOC), Events",[1]; SAD 10 mg (N = 6),2
same,"TEAE Investigations (SOC), Number (%) of Subjects",[1]; SAD 10 mg (N = 6),1(16.7) Number (%)
same,"TEAE Nausea, Number (%) of Subjects",[1]; SAD 10 mg (N = 6),0 Number (%)
same,"TEAE Neutrophil count decreased, Events",[1]; SAD 10 mg (N = 6),1
same,"TEAE Neutrophil count decreased, Number (%) of Subjects",[1]; SAD 10 mg (N = 6),1(16.7) Number (%)
same,"TEAE Neutrophil count increased (first line, r9), Number (%) of Subjects",[1]; SAD 10 mg (N = 6),0 Number (%)
same,"TEAE Neutrophil count increased (second line, r18), Number (%) of Subjects",[1]; SAD 10 mg (N = 6),0 Number (%)
same,"TEAE Rash, Number (%) of Subjects",[1]; SAD 10 mg (N = 6),0 Number (%)
same,"TEAE Skin and subcutaneous tissue disorders (SOC), Number (%) of Subjects",[1]; SAD 10 mg (N = 6),0 Number (%)
same,"TEAE Systolic blood pressure decreased, Number (%) of Subjects",[1]; SAD 10 mg (N = 6),0 Number (%)
same,"TEAE Ventricular hypokinesia, Events",[1]; SAD 10 mg (N = 6),1
same,"TEAE Ventricular hypokinesia, Number (%) of Subjects",[1]; SAD 10 mg (N = 6),1(16.7) Number (%)
same,"TEAE White blood cell count decreased, Events",[1]; SAD 10 mg (N = 6),1
same,"TEAE White blood cell count decreased, Number (%) of Subjects",[1]; SAD 10 mg (N = 6),1(16.7) Number (%)
same,"TEAE White blood cell count increased, Number (%) of Subjects",[1]; SAD 10 mg (N = 6),0 Number (%)
same,"TEAEs, Events",[1]; SAD 10 mg (N = 6),3
same,"TEAEs, Number (%) of Subjects",[1]; SAD 10 mg (N = 6),1(16.7) Number (%)
same,"TEAE Alanine aminotransferase increased, Number (%) of Subjects",[1]; SAD 20 mg (N = 6),0 Number (%)
same,"TEAE Blood bilirubin increased, Events",[1]; SAD 20 mg (N = 6),1
same,"TEAE Blood bilirubin increased, Number (%) of Subjects",[1]; SAD 20 mg (N = 6),1(16.7) Number (%)
same,"TEAE Blood creatine phosphokinase increased, Number (%) of Subjects",[1]; SAD 20 mg (N = 6),0 Number (%)
same,"TEAE Blood creatinine increased, Number (%) of Subjects",[1]; SAD 20 mg (N = 6),0 Number (%)
same,"TEAE Blood sodium decreased, Number (%) of Subjects",[1]; SAD 20 mg (N = 6),0 Number (%)
same,"TEAE Cardiac disorders (SOC), Number (%) of Subjects",[1]; SAD 20 mg (N = 6),0 Number (%)
same,"TEAE Chest discomfort, Events",[1]; SAD 20 mg (N = 6),2
same,"TEAE Chest discomfort, Number (%) of Subjects",[1]; SAD 20 mg (N = 6),1(16.7) Number (%)
same,"TEAE Conjugated bilirubin increased, Events",[1]; SAD 20 mg (N = 6),2
same,"TEAE Conjugated bilirubin increased, Number (%) of Subjects",[1]; SAD 20 mg (N = 6),2(33.3) Number (%)
same,"TEAE Gamma-glutamyltransferase increased, Number (%) of Subjects",[1]; SAD 20 mg (N = 6),0 Number (%)
same,"TEAE Gastrointestinal disorders (SOC), Events",[1]; SAD 20 mg (N = 6),1
same,"TEAE Gastrointestinal disorders (SOC), Number (%) of Subjects",[1]; SAD 20 mg (N = 6),1(16.7) Number (%)
same,"TEAE General disorders and administration site conditions (SOC), Events",[1]; SAD 20 mg (N = 6),2
same,"TEAE General disorders and administration site conditions (SOC), Number (%) of Subjects",[1]; SAD 20 mg (N = 6),1(16.7) Number (%)
same,"TEAE Heart rate decreased, Events",[1]; SAD 20 mg (N = 6),2
same,"TEAE Heart rate decreased, Number (%) of Subjects",[1]; SAD 20 mg (N = 6),1(16.7) Number (%)
same,"TEAE Investigations (SOC), Events",[1]; SAD 20 mg (N = 6),7
same,"TEAE Investigations (SOC), Number (%) of Subjects",[1]; SAD 20 mg (N = 6),4(66.7) Number (%)
same,"TEAE Nausea, Events",[1]; SAD 20 mg (N = 6),1
same,"TEAE Nausea, Number (%) of Subjects",[1]; SAD 20 mg (N = 6),1(16.7) Number (%)
same,"TEAE Neutrophil count decreased, Number (%) of Subjects",[1]; SAD 20 mg (N = 6),0 Number (%)
same,"TEAE Neutrophil count increased (first line, r9), Number (%) of Subjects",[1]; SAD 20 mg (N = 6),0 Number (%)
same,"TEAE Neutrophil count increased (second line, r18), Number (%) of Subjects",[1]; SAD 20 mg (N = 6),0 Number (%)
same,"TEAE Rash, Number (%) of Subjects",[1]; SAD 20 mg (N = 6),0 Number (%)
same,"TEAE Skin and subcutaneous tissue disorders (SOC), Number (%) of Subjects",[1]; SAD 20 mg (N = 6),0 Number (%)
same,"TEAE Systolic blood pressure decreased, Events",[1]; SAD 20 mg (N = 6),2
same,"TEAE Systolic blood pressure decreased, Number (%) of Subjects",[1]; SAD 20 mg (N = 6),2(33.3) Number (%)
same,"TEAE Ventricular hypokinesia, Number (%) of Subjects",[1]; SAD 20 mg (N = 6),0 Number (%)
same,"TEAE White blood cell count decreased, Number (%) of Subjects",[1]; SAD 20 mg (N = 6),0 Number (%)
same,"TEAE White blood cell count increased, Number (%) of Subjects",[1]; SAD 20 mg (N = 6),0 Number (%)
same,"TEAEs, Events",[1]; SAD 20 mg (N = 6),10
same,"TEAEs, Number (%) of Subjects",[1]; SAD 20 mg (N = 6),4(66.7) Number (%)
same,"deaths, SAEs, AESIs, discontinuations due to TEAEs, LVEF <50%",[1]; all cohorts,"no deaths, serious adverse events (SAEs)"
same,severity of TEAEs,[1]; all cohorts,mild
same,"safety and tolerability, in words",[1],well-tolerated
same,"safety and tolerability, in words",[1]; listed as Aficamten,safe and well-tolerated
same,CYP isoform involved in metabolism,[2],"CYP2D6, as the primary isoform involved in aficamten metabolism"
